# Measured values reported in the NIST ThermoML archive (doi:10.1021/acs.jced.9b00102).
# Where “and” joins values, the source holds several entries; their conditions need not be identical. Identical values can stand only once. Numbers after ± are expanded uncertainties.
# Experiments:
# [1] = Liquid, Ebulliometric method (Recirculating still)
# [2] = refractive index (Na D-line) (dimensionless); conditions: 293.15 K; 101.33 kPa; Liquid; Standard Abbe refractometry
SMILES,vapor or sublimation pressure ([1]; 303.15 K) [kPa],vapor or sublimation pressure ([1]; 323.15 K) [kPa],vapor or sublimation pressure ([1]; 343.15 K) [kPa],refractive index [2],vapor or sublimation pressure ([1]; 329.15 K),vapor or sublimation pressure ([1]; 313.15 K)
CCCCCC [hexane],25.09 ± 0.28,54.3 ± 0.29,105.38 ± 0.71,1.3725 ± 0.002,66.87 ± 0.39 kPa and 67.73 ± 0.39 kPa,
CCCO [propan-1-ol],3.9 ± 0.22,12.19 ± 0.23,,1.3853 ± 0.002,,7.02 ± 0.23 kPa and 6.93 ± 0.23 kPa
O [water],4.27 ± 0.22,12.38 ± 0.23,,1.3333 ± 0.002,,7.44 ± 0.23 kPa and 7.34 ± 0.23 kPa

# Other lines, results leading:
vapor or sublimation pressure ([1]; 303.15 K) [kPa],vapor or sublimation pressure ([1]; 323.15 K) [kPa],vapor or sublimation pressure ([1]; 343.15 K) [kPa],refractive index [2],vapor or sublimation pressure ([1]; 329.15 K),vapor or sublimation pressure ([1]; 313.15 K),SMILES
2.01 ± 0.22,7.11 ± 0.23,20.47 ± 0.24,1.3958 ± 0.002,,,CC(C)CO [2-methyl-1-propanol]
3.27 ± 0.23,,29.58 ± 0.26,1.3976 ± 0.002,14.83 ± 0.23 kPa and 14.37 ± 0.23 kPa,,CCC(C)O (stereo unspecified) [butan-2-ol]
